For one test, the target named is T1, JAK1 (Homo sapiens, UniProt P23458).
T1 construct: 5 μl of catalytic domain recombinant Kinase enzyme+Tyr peptide substrate (Invitrogen, CA); purchased Invitrogen
Kind of test: Z'-LYTE kinase assay JAK1. Type of test: biochemical. An outline of the steps:
(§1)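 Z′-LYTE FRET, Tyr6 peptide, recombinant catalytic domain + ATP, 1 h RT, 1% DMSO final, duplicates; protease development 1 h RT; fluorescence read.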

The next test deals with T2, TYK2 (Homo sapiens, UniProt P29597).
T2 construct: 5 μl of catalytic domain recombinant Kinase enzyme+Tyr peptide substrate (Invitrogen, CA); purchased Invitrogen
T2 sequence (P29597 897-1176 limits assumed): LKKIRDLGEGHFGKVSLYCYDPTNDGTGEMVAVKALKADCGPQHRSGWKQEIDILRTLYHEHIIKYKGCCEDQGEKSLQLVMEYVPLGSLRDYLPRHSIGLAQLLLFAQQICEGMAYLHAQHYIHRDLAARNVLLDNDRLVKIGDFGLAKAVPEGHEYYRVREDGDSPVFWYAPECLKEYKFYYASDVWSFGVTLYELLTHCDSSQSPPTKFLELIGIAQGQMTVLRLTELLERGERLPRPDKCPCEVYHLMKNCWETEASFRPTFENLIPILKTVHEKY
Kind of test: Z'-LYTE kinase assay TYK2. The test is classed as biochemical. The procedure, abridged:
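IC50 derived by 4-parameter logistic fit of percent substrate phosphorylation relative to uninhibited wells. Tyr6 peptide phosphorylated by recombinant TYK2 catalytic domain for 1 h at room temperature (1% DMSO), cleaved by development protease 1 h, FRET emission ratio 445/520 nm.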

The target in another test is T3, JAK2 (Homo sapiens, UniProt O60674).
T3 construct: 5 μl of catalytic domain recombinant Kinase enzyme+Tyr peptide substrate (Invitrogen, CA); purchased Invitrogen
As to the kind of experiment: Z'-LYTE kinase assay JAK2. Type of test: biochemical. The procedure, abridged: as §1

The next test concerns the target T4, JAK3 (Homo sapiens, UniProt P52333).
T4 construct: 5 μl of catalytic domain recombinant Kinase enzyme+Tyr peptide substrate (Invitrogen, CA); purchased Invitrogen
Kind of test: Z'-LYTE kinase assay JAK3. Type of test: biochemical. An outline of the steps:
as §1

Test [1] has as its system JAK1/3 signaling to STAT6 in Ramos B cells. As to the kind of experiment: IL4 stimulation of JAK1/3 signaling to STAT6 in Ramos B cells (pSTAT6 Y641, FACS). Type of test: cell-based. The settings on record: Homo sapiens; for inhibition at 0.2 µM: 0.2 uM compound, read-out: IL-4/STAT6 in Ramos Percent Inhibition at 0.2 uM; for inhibition at 1 µM: 1.0 uM compound, read-out: IL-4/STAT6 in Ramos Percent Inhibition at 1.0 uM. The procedure, abridged: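 Phospho-STAT6 Y641 was measured by FACS using a PE-labelled antibody after fixation (2% paraformaldehyde) and methanol permeabilization. Before this, Ramos cells were exposed to compound for 1 h, then to 15 ng IL4 for 15 min.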

pIC50: −log10 of the molar value.

We go through two molecules from US20150353495A1 (PORTOLA PHARMACEUTICALS, INC., priority 2010, published 2015).

T4 sequence (P52333 822-1111 limits assumed): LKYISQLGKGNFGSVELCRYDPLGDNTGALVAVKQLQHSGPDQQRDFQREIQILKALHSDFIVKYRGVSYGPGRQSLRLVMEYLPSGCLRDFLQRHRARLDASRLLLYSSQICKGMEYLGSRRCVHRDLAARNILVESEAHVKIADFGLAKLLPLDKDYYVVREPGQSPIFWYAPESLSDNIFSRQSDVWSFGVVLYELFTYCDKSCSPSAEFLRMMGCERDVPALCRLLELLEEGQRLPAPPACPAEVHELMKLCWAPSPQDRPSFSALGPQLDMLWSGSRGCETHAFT
T3 sequence (O60674 849-1124 limits assumed): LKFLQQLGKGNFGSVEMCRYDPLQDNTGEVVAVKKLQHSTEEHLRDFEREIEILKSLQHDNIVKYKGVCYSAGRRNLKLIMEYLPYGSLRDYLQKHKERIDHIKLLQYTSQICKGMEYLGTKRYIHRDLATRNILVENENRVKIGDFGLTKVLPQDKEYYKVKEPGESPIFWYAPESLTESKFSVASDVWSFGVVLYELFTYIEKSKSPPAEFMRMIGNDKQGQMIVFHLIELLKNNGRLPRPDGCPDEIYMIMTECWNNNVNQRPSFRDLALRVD
T1 sequence (P23458 875-1153 limits assumed): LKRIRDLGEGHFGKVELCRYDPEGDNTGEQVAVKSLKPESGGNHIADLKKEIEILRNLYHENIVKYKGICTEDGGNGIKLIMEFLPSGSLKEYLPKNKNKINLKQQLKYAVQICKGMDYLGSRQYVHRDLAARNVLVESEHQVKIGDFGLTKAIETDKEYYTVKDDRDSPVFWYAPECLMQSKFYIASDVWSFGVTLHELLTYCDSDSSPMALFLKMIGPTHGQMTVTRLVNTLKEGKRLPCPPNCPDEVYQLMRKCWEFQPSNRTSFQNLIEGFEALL

As for `CC(=O)N1CCN(c2ccc(Nc3cc(NC4CC4)c(C(N)=O)cn3)cc2)CC1` [Example 2], the pIC50 (as a rule, −log10 of the IC50, conventionally taken in molar units) at JAK1 was 6.00 to 7.00; at TYK2 it was 6.00 to 7.00; on JAK2, 6.00 to 7.00; at JAK3, 7.00 to 8.00. Moreover, the inhibition at 0.2 µM in test [1] amounted to 29%. Besides, the inhibition at 1 µM in test [1] turned out to be 77%.

For the molecule `CC(=O)N1CCN(c2ccc(Nc3cc(NCc4cccc(F)c4)c(C(N)=O)cn3)cc2)CC1` [Example 229], the negative logarithm of the IC50 (pIC50) was 6.00 to 7.00 against JAK1, 6.00 to 7.00 at TYK2, 7.00 to 8.00 against JAK2 and 8.00 to 9.00 on JAK3. The inhibition at 0.2 µM in test [1] was 38%. Further, the inhibition at 1 µM in test [1] amounted to 67%.
